# Laboratory results: patent publication US8759098B2, “Method for cloning pluripotent stem cells” (Boston Biomedical Research Institute, Inc., priority 2009, dated 2014)
# Key:
# Assay type in all cases: cell-based, mouse
# SACK-R strain Panstra-25 = experiment: Insulin expression by immunofluorescence, pancreatic differentiation; settings: routine culture conditions with Xn supplementation, three days
# Text: Upper panels, routine culture conditions with Xn supplementation; lower panels, Xn-free differentiation conditions. DAPI, detection of corresponding cell nuclei. The expression of insulin was detected by immunofluorescence (data not shown). In order to study the formation of islet-like clusters after induction of differentiation in Xn-free medium, pancreatic beta-cell differentiation was induced by plating the cells on a poly-D-lysine substrate and changing growth medium to medium containing 1% dialysed fetal bovine serum, 20 ng/mL epidermal growth factor (EGF), 10 mM nicotinamide, and 25 mM glucose. […] Insulin was expressed in cells differentiated in Xn-free conditions after three days. The expression of insulin was detected by immunofluorescence (data not shown). DAPI, detection of corresponding cell nuclei. […] These properties of self-renewal in an undifferentiated state and the ability to produce differentiated pancreatic cells define the SACK-R strains as pancreatic tissue stem cells.
# Panstra 11 = experiment: SACK responsiveness (cell kinetics, colony formation), Panstra 11; parameters: key: SACK-responsive (R); non-responsive (NR); settings: Panstra 11, SACK agent Xn
# Protocol: Cells were plated at colony forming density in SACK-free culture medium (Control) or culture medium supplemented to 1 mM concentration with the SACK agents xanthosine (Xs), xanthine (Xn), or hypoxanthine (Hx).
# The terms “SACK-R” and “Xn-responsive” are used interchangeably. Xn-responsive cells are not transformed cells.
# In the example, the differentiated cells are adult mouse pancreatic islet cells and Xn is the chemical compound used to suppress asymmetric cell kinetics (SACK). […] These Xn-treated and Xn-responsive cells then proceeded to express alkaline phosphatase, a known enzyme marker that is highly expressed in undifferentiated cells such as primordial germ cells (FIG. 8), after culture in media that support the proliferation of mouse pluripotent stem cells. Under these conditions, these Xn-expanded and Xn-responsive cells also multiply to form colonies that take on a clonal mouse embryonic stem cell-like morphology in culture, resembling a compact clump of round tiny cells, the clump having a smooth and well defined edge (FIG. 7B).
# The SACK-derived clonal pancreatic cell strains have properties of either beta-cell precursors (Pdx1+) or more primitive pancreatic cells (Pdx1−). In the colony formation analyses, three hundred (300) cells were plated in replicate (n=3) 30-mm diameter culture dishes. […] Ten days later, plates were stained with crystal violet and colonies counted. […]
# [1] = system: SACK-responsive, Pdx1-negative Panstra-12 pancreatic stem cells; experiment: Gene-free iPSC reprogramming on STO feeders, colony phenotypes, Panstra-12; settings: for Estimated gene-free iPSC colony formation efficiency, ES, AP+ (iPSC state) / Estimated gene-free iPSC colony formation efficiency, ES, AP− / Estimated gene-free iPSC colony formation efficiency, Fl, AP+ / Estimated gene-free iPSC colony formation efficiency, Fl, AP− / Phenotype ES, AP+ (iPSC state) of individual cell clones following expansion, clones/total / Phenotype ES, AP+ (iPSC state) of individual cell clones following expansion, percent / Phenotype ES, AP− of individual cell clones following expansion, clones/total / Phenotype ES, AP− of individual cell clones following expansion, percent / Phenotype Fl, AP+ of individual cell clones following expansion, clones/total / Phenotype Fl, AP+ of individual cell clones following expansion, percent / Phenotype Fl, AP− of individual cell clones following expansion, clones/total / Phenotype Fl, AP− of individual cell clones following expansion, percent: Panstra-12, 1 mM Xn
# Protocol: Each tested SACK-derived cell strain was cultured on STO cell feeder monolayers in control medium with 10% DFBS, dialyzed fetal bovine serum (DFBS) or either of two commercial media for culture of murine embryonic stem cells (ESCs) and for the culture of reprogrammed cells such as iPSCs. Each medium condition was evaluated with or without supplementation with 1 mM xanthine (Xn). P/S denotes routine use of the antibiotics penicillin and streptomycin.
# The method is an original pharmacological procedure for producing pluripotent stem cells. Cell strains derived in xanthine (Xn)-supplemented medium, by the method of suppression of asymmetric cell kinetics (SACK), were cultured in commercial media specified for the culture and/or production of pluripotent stem cells such as embryonic stem cells and iPSCs. Approximately 150,000 cells were plated on confluent STO cell feeders (i.e., mouse embryonic fibroblasts pre-treated with mitomycin C) in 10-cm culture dishes. In 2 weeks, iPSC-like cell colonies were detected.
# To establish clonal strains, single colonies were picked, cultured in individual wells, and expanded for further study and cryo-preservation. A high fraction of the derived cell clones have morphological and biochemical properties indicative of iPSC cells.
# Tissue-specific stem cells (e.g., Panstra-25 and Panstra-12 mouse pancreatic stem cell strains in the instant example) were cultured on mitomycin C-treated STO cell monolayers in commercial embryonic stem cell medium supplemented with the purine salvage base xanthine at 1 mM concentration (FIG. 4). Within 2-3 weeks of culture under otherwise standard conditions, cell colonies with embryonic stem cell-like morphology developed (FIG. 7B). These colonies were removed by mild trypsin treatment, transferred to individual cell culture wells prepared with STO cell feeders, and expanded in the respective embryonic stem cell culture medium supplemented with 1 mM xanthine (FIG. 5). The expanded cell clones expressed alkaline phosphatase (FIG. 8), a biochemical biomarker for the pluripotent phenotype of embryonic stem cells and iPSC cells. […] Xn supplementation increased the average production efficiency by as much as 3-fold (Table 6).
structure (smiles),measurement,setting,value
"O=c1[nH]c(=O)c2[nH]cnc2[nH]1 [Xn, xanthine]",expression of insulin (immunofluorescence),SACK-R strain Panstra-25,no expressed insulin was detectable
same,SACK Type,Panstra 11,NR
same,iPSC (gene-free iPSC reprogramming),"[1]; Panstra 12, SACK agent Xn",Yes
same,"Estimated gene-free iPSC colony formation efficiency, ES, AP+ (iPSC state)",[1]; DFBS,0.000%
same,"Estimated gene-free iPSC colony formation efficiency, ES, AP−",[1]; DFBS,0.047%
same,"Estimated gene-free iPSC colony formation efficiency, Fl, AP+",[1]; DFBS,0.027%
same,"Estimated gene-free iPSC colony formation efficiency, Fl, AP−",[1]; DFBS,0.080%
same,"Phenotype ES, AP+ (iPSC state) of individual cell clones following expansion, clones/total",[1]; DFBS,0/23
same,"Phenotype ES, AP+ (iPSC state) of individual cell clones following expansion, percent",[1]; DFBS,0%
same,"Phenotype ES, AP− of individual cell clones following expansion, clones/total",[1]; DFBS,7/23
same,"Phenotype ES, AP− of individual cell clones following expansion, percent",[1]; DFBS,31%
same,"Phenotype Fl, AP+ of individual cell clones following expansion, clones/total",[1]; DFBS,4/23
same,"Phenotype Fl, AP+ of individual cell clones following expansion, percent",[1]; DFBS,17%
same,"Phenotype Fl, AP− of individual cell clones following expansion, clones/total",[1]; DFBS,12/23
same,"Phenotype Fl, AP− of individual cell clones following expansion, percent",[1]; DFBS,52%
same,"Estimated gene-free iPSC colony formation efficiency, ES, AP+ (iPSC state)",[1]; KOSR,0.067%
same,"Estimated gene-free iPSC colony formation efficiency, ES, AP−",[1]; KOSR,0.033%
same,"Estimated gene-free iPSC colony formation efficiency, Fl, AP+",[1]; KOSR,0.007%
same,"Estimated gene-free iPSC colony formation efficiency, Fl, AP−",[1]; KOSR,0.007%
same,"Phenotype ES, AP+ (iPSC state) of individual cell clones following expansion, clones/total",[1]; KOSR,10/17
same,"Phenotype ES, AP+ (iPSC state) of individual cell clones following expansion, percent",[1]; KOSR,59%
same,"Phenotype ES, AP− of individual cell clones following expansion, clones/total",[1]; KOSR,5/17
same,"Phenotype ES, AP− of individual cell clones following expansion, percent",[1]; KOSR,29%
same,"Phenotype Fl, AP+ of individual cell clones following expansion, clones/total",[1]; KOSR,1/17
same,"Phenotype Fl, AP+ of individual cell clones following expansion, percent",[1]; KOSR,6%
same,"Phenotype Fl, AP− of individual cell clones following expansion, clones/total",[1]; KOSR,1/17
same,"Phenotype Fl, AP− of individual cell clones following expansion, percent",[1]; KOSR,6%
same,"Estimated gene-free iPSC colony formation efficiency, ES, AP+ (iPSC state)",[1]; hiFBS,0.020%
same,"Estimated gene-free iPSC colony formation efficiency, ES, AP−",[1]; hiFBS,0.033%
same,"Estimated gene-free iPSC colony formation efficiency, Fl, AP+",[1]; hiFBS,0.000%
same,"Estimated gene-free iPSC colony formation efficiency, Fl, AP−",[1]; hiFBS,0.073%
same,"Phenotype ES, AP+ (iPSC state) of individual cell clones following expansion, clones/total",[1]; hiFBS,3/19
same,"Phenotype ES, AP+ (iPSC state) of individual cell clones following expansion, percent",[1]; hiFBS,16%
same,"Phenotype ES, AP− of individual cell clones following expansion, clones/total",[1]; hiFBS,5/19
same,"Phenotype ES, AP− of individual cell clones following expansion, percent",[1]; hiFBS,26%
same,"Phenotype Fl, AP+ of individual cell clones following expansion, clones/total",[1]; hiFBS,0/19
same,"Phenotype Fl, AP+ of individual cell clones following expansion, percent",[1]; hiFBS,0%
same,"Phenotype Fl, AP− of individual cell clones following expansion, clones/total",[1]; hiFBS,11/19
same,"Phenotype Fl, AP− of individual cell clones following expansion, percent",[1]; hiFBS,58%
same,"higher rate of iPSC-like colony production, average","[1]; Pdx1− strain supplemented with Xn, p=0.024",3 fold
same,increase of the conversion rate to iPSC,"[1]; Xn in the iPSC media at 1 mM, strain not given",approximately 3 fold
same,increase of the average production efficiency of iPSC-like cell clones,[1]; Xn supplementation (Table 6),≤ 3 fold
